The test has as its system P388 leukemia ip, CD2F1 mice, survival T/C. Put plainly: NCI In Vivo Anticancer Drug Screen. Data for tumor model P388 Leukemia (intraperitoneal) in CD2F1 (CDF1) mice. To be noted: endpoint: median survival time, higher = longer survival. An outline of the steps: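 Mice carrying the transplanted tumor received test compound or vehicle. Survival was recorded in each group, and the value is the treated-group measurement divided by that of the vehicle-treated control group.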

Setting [1] is: dose: 100.0 mg/kg/injection, schedule: Q01DX009 (ip), vehicle: Klucel (hydroxypropylcellulose) (HPC).
Setting [2] is: dose: 200.0 mg/kg/injection, schedule: Q01DX009 (ip), vehicle: Klucel (hydroxypropylcellulose) (HPC).
The mark [3] stands for this setting: dose: 50.0 mg/kg/injection, schedule: Q01DX005 (ip), vehicle: saline with Tween-80.
The mark [4] stands for this setting: dose: 100.0 mg/kg/injection, schedule: Q01DX005 (ip), vehicle: saline with Tween-80.
[5] abbreviates: dose: 200.0 mg/kg/injection, schedule: Q01DX005 (ip), vehicle: saline with Tween-80.
[6] abbreviates: dose: 60.0 mg/kg/injection, schedule: Q01DX005 (ip), vehicle: saline with Tween-80.
[7] abbreviates: dose: 120.0 mg/kg/injection, schedule: Q01DX005 (ip), vehicle: saline with Tween-80.
Where [8] appears, read: dose: 240.0 mg/kg/injection, schedule: Q01DX005 (ip), vehicle: saline with Tween-80.
Setting [9] is: dose: 60.0 mg/kg/injection, schedule: Q01DX005 (ip), vehicle: Klucel (hydroxypropylcellulose) (HPC).
Setting [10] is: dose: 120.0 mg/kg/injection, schedule: Q01DX005 (ip), vehicle: Klucel (hydroxypropylcellulose) (HPC).

Structures are written as SMILES. Values joined by “and” are separate entries in the source; they are usually repeats but may differ in a detail not shown here. Equal values may be shown once. Inconclusive results and toxic doses are left out.

Take `CC(=O)Nc1cn(C)cc1[N+](=O)[O-]`: the T/C (dose: 50.0 mg/kg/injection, schedule: Q01DX009 (ip), vehicle: saline with Tween-80) was 102 % of control; the T/C (dose: 100.0 mg/kg/injection, schedule: Q01DX009 (ip), vehicle: saline with Tween-80) was 103 % of control; the T/C (dose: 200.0 mg/kg/injection, schedule: Q01DX009 (ip), vehicle: saline with Tween-80) was 104 % of control.

With `COc1ccc(C2CC(c3ccccc3)=Nc3ccccc3S2)cc1OC` (stereo not given), the T/C (dose: 50.0 mg/kg/injection, schedule: Q01DX009 (ip), vehicle: Klucel (hydroxypropylcellulose) (HPC)) was 102 % of control; the T/C under setting [1] is 90 % of control; the T/C under setting [2] was 96 % of control.

For the molecule `CCCCCCCCCCCCCCCCOc1ccc(C(=O)O)cc1S(=O)(=O)N/N=c1/sc2cc(Cl)cc(Cl)c2n1C`, the T/C reads like this: (dose: 50.0 mg/kg/injection, schedule: Q01DX009 (ip), vehicle: saline) 88 % of control; (dose: 100.0 mg/kg/injection, schedule: Q01DX009 (ip), vehicle: saline) 93 % of control; (dose: 200.0 mg/kg/injection, schedule: Q01DX009 (ip), vehicle: saline) 86 % of control.

Take `CCCSc1nn2cc(NC(=O)OC)nc2s1`: the T/C was 97 % of control under setting [3], 100 % of control under setting [4] and 103 % of control under setting [5].

With `CC12C(=O)NC(c3ccccc3)(c3ccccc31)C1C(=O)N(C(N)=O)C(=O)C12` (stereo not given), the T/C is, setting by setting: under setting [6], 94 % of control; under setting [7], 89 % of control; under setting [8], 93 % of control.

For the molecule `C=C1C(=O)C23C(OC(=O)c4ccccc4)C1CCC2C12COC3(O)C(O)C1C(C)(C)CCC2O` (stereo not given), the T/C is 103 % of control and 107 % of control and 110 % of control (dose: 3.75 mg/kg/injection, schedule: Q01DX009 (ip), vehicle: saline with Tween-80); 102 % of control and 112 % of control and 120 % of control (dose: 7.5 mg/kg/injection, schedule: Q01DX009 (ip), vehicle: saline with Tween-80); 100 % of control and 118 % of control and 119 % of control (dose: 15.0 mg/kg/injection, schedule: Q01DX009 (ip), vehicle: saline with Tween-80); 109 % of control and 115 % of control (dose: 30.0 mg/kg/injection, schedule: Q01DX009 (ip), vehicle: saline with Tween-80).

As to `CC(C)(C)c1cc(C/C=C/c2ccccc2)c(O)c(C(C)(C)C)c1`, the T/C (dose: 2.5 mg/kg/injection, schedule: Q01DX009 (ip), vehicle: saline with Tween-80) was 90 % of control; the T/C (dose: 5.0 mg/kg/injection, schedule: Q01DX009 (ip), vehicle: saline with Tween-80) is 99 % of control; the T/C (dose: 10.0 mg/kg/injection, schedule: Q01DX009 (ip), vehicle: saline with Tween-80) is 96 % of control.

Regarding `CN1CCOC(=O)C(C#N)=C1c1ccccc1`, the T/C is, setting by setting: under setting [6], 110 % of control; under setting [7], 108 % of control; under setting [8], 98 % of control.

Turning to `CCOC(=O)N1C2CCC1C(C)C(=O)C2` (stereo not given), the T/C is, setting by setting: (dose: 50.0 mg/kg/injection, schedule: Q01DX005 (ip), vehicle: saline) 96 % of control; (dose: 100.0 mg/kg/injection, schedule: Q01DX005 (ip), vehicle: saline) 96 % of control and 104 % of control; (dose: 200.0 mg/kg/injection, schedule: Q01DX005 (ip), vehicle: saline) 94 % of control.

Turning to `Brc1cc(Br)cc(CN2CCOCC2)c1`, the T/C runs as follows: under setting [6], 98 % of control; under setting [7], 100 % of control; under setting [8], 106 % of control.

For the molecule `CC(C)CC1N=C(NN=C(CCl)CCl)SP1(=O)NNc1ncccn1` (stereo not given), the T/C under setting [9] was 100 % of control; the T/C under setting [10] is 100 % of control; the T/C (dose: 240.0 mg/kg/injection, schedule: Q01DX005 (ip), vehicle: Klucel (hydroxypropylcellulose) (HPC)) was 113 % of control.

As to `O=C(O)C1C=CC2OC2C1C(=O)O` (stereo not given), the T/C runs as follows: (dose: 100.0 mg/kg/injection, schedule: Q01DX001 (ip), vehicle: Klucel (hydroxypropylcellulose) (HPC)) 87 % of control; (dose: 200.0 mg/kg/injection, schedule: Q01DX001 (ip), vehicle: Klucel (hydroxypropylcellulose) (HPC)) 92 % of control; (dose: 400.0 mg/kg/injection, schedule: Q01DX001 (ip), vehicle: Klucel (hydroxypropylcellulose) (HPC)) 93 % of control.

Regarding `CC(C)C1[NH][Sn]2([NH]C(C(C)C)C(=O)[O]2)[O]C1=O` (stereo not given), the T/C was 97 % of control (dose: 50.0 mg/kg/injection, schedule: Q01DX005 (ip), vehicle: Klucel (hydroxypropylcellulose) (HPC)) and 106 % of control (dose: 100.0 mg/kg/injection, schedule: Q01DX005 (ip), vehicle: Klucel (hydroxypropylcellulose) (HPC)).

With `O=C(Nc1nc2cc(Cl)ccc2o1)c1ccc(C(=O)Nc2nc3cc(Cl)ccc3o2)cc1`, the T/C was 108 % of control (dose: 100.0 mg/kg/injection, schedule: Q04DX003 (ip), vehicle: saline with Tween-80); 94 % of control (dose: 200.0 mg/kg/injection, schedule: Q04DX003 (ip), vehicle: saline with Tween-80); 99 % of control (dose: 400.0 mg/kg/injection, schedule: Q04DX003 (ip), vehicle: saline with Tween-80).

Consider `COc1cc(/C=C/Cc2cc3c(cc2OCCO)OCO3)cc(OC)c1OC`, for which the T/C was 94 % of control under setting [6], 92 % of control under setting [7] and 101 % of control under setting [8].

Turning to `COC(=O)NC(NC(=O)OC)C(F)(F)C(NC(=O)OC)NC(=O)OC`, the T/C is, setting by setting: under setting [9], 96 % of control; under setting [10], 95 % of control.

Regarding `CCOc1ccc(N=Nc2ccc(N)cc2N)cc1`, the T/C was 118 % of control under setting [1]; 100 % of control under setting [2]; 93 % of control (dose: 400.0 mg/kg/injection, schedule: Q01DX009 (ip), vehicle: Klucel (hydroxypropylcellulose) (HPC)).

As for `Cc1cc(Cl)nc2ccc([N+](=O)[O-])cc12`, the T/C was 92 % of control (dose: 100.0 mg/kg/injection, schedule: Q04DX003 (ip), vehicle: saline); 94 % of control (dose: 200.0 mg/kg/injection, schedule: Q04DX003 (ip), vehicle: saline); 91 % of control (dose: 400.0 mg/kg/injection, schedule: Q04DX003 (ip), vehicle: saline).

Take `Cc1nc(N)[nH]c(=O)c1CCCCC#N`: the T/C was 104 % of control under setting [9] and 104 % of control under setting [10].

`COC1C(CN(C)N=Nc2ccccc2C(N)=O)OC2OC(C)(C)OC21` (stereo not given): the T/C is 94 % of control (dose: 100.0 mg/kg/injection, schedule: Q04DX002 (ip), vehicle: saline with Tween-80); 91 % of control (dose: 200.0 mg/kg/injection, schedule: Q04DX002 (ip), vehicle: saline with Tween-80); 91 % of control (dose: 400.0 mg/kg/injection, schedule: Q04DX002 (ip), vehicle: saline with Tween-80).

Consider `CC[N+](C)(CC)CCOC(C)=O`, for which the T/C is 100 % of control (dose: 6.25 mg/kg/injection, schedule: Q01DX001 (ip), vehicle: saline); 100 % of control (dose: 12.5 mg/kg/injection, schedule: Q01DX001 (ip), vehicle: saline); 101 % of control (dose: 25.0 mg/kg/injection, schedule: Q01DX001 (ip), vehicle: saline with Tween-80); 98 % of control (dose: 25.0 mg/kg/injection, schedule: Q01DX001 (ip), vehicle: saline).

On to `CC(C)=C1[C@@H]2C=C[C@@H]1[C@H]1C(=O)[C@@H]3O[C@]3(CO)C(=O)[C@H]12`, for which the T/C under setting [3] is 106 % of control, the T/C under setting [4] was 101 % of control and the T/C under setting [5] was 108 % of control.

These data come from PubChem BioAssay AID330 (DTP/NCI, 2004).
